Experimental data taken from ChEMBL document CHEMBL5375996, “Discovery of Orally Available and Brain Penetrant AEP Inhibitors” (J Med Chem, 2023).

Key:
physchem = settings: octanol/water
in vitro = settings: PAMPA

SMILES	logD (physchem)	Papp (in vitro)
C#C[C@H](CC(N)=O)NC(=O)[C@@H]1C[C@@H](C)CN1C(=O)C1(c2ccc(OC(F)(F)F)cc2)CC1	2.2	28 nm/s
N#C[C@H](CC(N)=O)NC(=O)[C@@H]1CCCN1C(=O)Cc1ccccc1	–	27 nm/s
C#C[C@H](CC(N)=O)NC(=O)[C@@H]1CCCN1C(=O)[C@]1(c2ccc(OC(F)(F)F)cc2)C[C@H](F)C1	1.7	–
NC(=O)CN(NC(=O)[C@@H]1CCCN1C(=O)C1(c2ccc(OC(F)(F)F)cc2)CC1)C(=O)CCl	1.9	–
C#C[C@H](CC(N)=O)NC(=O)[C@@H]1C[C@H](C)CN1C(=O)C1(c2ccc(OC(F)(F)F)cc2)CC1	2.3	15 nm/s

Now from value to compound:

logD (physchem)	Papp (in vitro)	SMILES
2.1	–	C#C[C@H](CC(N)=O)NC(=O)[C@@H]1CCCN1C(=O)[C@]1(c2ccc(OC(F)(F)F)cc2)C[C@@H](F)C1
0.5	29 nm/s	N#C[C@H](CC(N)=O)NC(=O)[C@@H]1CCCN1C(=O)C1(c2ccc(F)cc2)CC1
